Laboratory results from patent publication US6639107B1, “Cyclopentyl sulfonamide derivatives” (Eli Lilly and Company, priority 1999, dated 2003).

CC(C)S(=O)(=O)N[C@H]1CCC[C@@H]1c1ccc(Br)cc1 (racemic) [Example 48, (+,−) Trans Propane-2-sulfonic Acid [2-(4-bromo-phenyl)-cyclopentyl]-amide]
melting point: 128 to 130 °C
